2 substances from US6391304B1, “Peptides derived from the ENV gene of the feline immunodeficiency virus and their applications” (Centre National de la Recherche Scientifique, priority 1997, dated 2002) can be followed below.

“And” between values parts separate entries of the source, which are not always exact repeats. Identical values can stand only once. Ends that are not written are not given here.

The test system of one assay is FIV Wo. In words: Test of reduction of viral infectivity in mitogen-activated feline PBM cells. The class given is cell-based. The conditions noted are these: PBMC cells activated with a mitogen; serum dilution 1/5. On the procedure: For the test of reduction of the viral infectivity, serial dilutions ( 1/50, 1/100, 1/200 and 1/400) of a stock suspension of Wo isolate and a single dilution of serum (⅕) are prepared in a complete RPMI medium containing 50 μM of 2-ME and 10 mM of HEPES.
The feline serum is mixed with an equal volume of the serial dilutions of virus and incubated in a final volume of 100 μl for one hour at 37° C.
The concentration of PBM cells activated with a mitogen is adjusted to 4×10^6/ ml in a complete RPMI medium comprising 2-ME, HEPES and 200 U/ml of recombinant human IL-2. 0.1 ml of cell suspension (4×10^5 cells) is added to the tubes.
After incubation overnight, the viral inoculum is recovered by washing the cells twice with 0.5 ml of complete RPMI medium.
The cells are then resuspended fin 0.2 ml of feline serum diluted in a complete RDMI medium comprising 2-ME, HEPES and 100 U/ml of IL-2, and then transferred into the wells of 96-well microtitration plates.
Half of the medium is replaced four days after the infection.
10 μl aliquots are recovered 7 days after the infection, for an analysis of the reverse transcriptase activity.
Given that the Wo strain was not adapted by passage on CrFK cells, the influence of the antibodies was studied on the infection in feline PBMC cells.

A further assay deals with FIV Petaluma strain. In words: Neutralization of infection of CrFK cells by sera of immunized cats. It counts as cell-based. The conditions noted are these: for neutralizing antibodies in sera of immunized cats: CrFK cell line. The method, then: The detection of antibodies neutralizing the infection of the CrFKs with the FIV Petaluma strain is carried out as described previously (Richardson J. et al., J. Gen. Virol., 1996, 77, 759-771).
To evaluate the function of the antibodies, the feline sera directed against the SU2 peptide are tested for their neutralizing value with respect to the infection of CrFK cells with the FIV Petaluma strain.

The subject of assay [1] is p25 recombinant FIV capsid protein. In words: Seroconversion ELISA after the virulence test, p25. It counts as in vivo, cats. To be noted: for Binding of the sera to p25, 3 weeks after the virulence test / Binding of the sera to p25, 4 weeks after the virulence test / Binding of the sera to p25, 5 weeks after the virulence test: ELISA, seral dilution 1/100, individual cats. On the procedure:
The cats are subjected to a virulence test, one week after the final immunization, by means of an intraperitoneal inoculation of 10 CID50 of FIV Wo isolate, one CID50 corresponding to the dose capable of infecting 50% of the cats.
(§1) The production on of antibodies is evaluated before the test by means of an ELISA using an immobilized peptide (SU2, SU5, TM2 or TM3-19) and immunoprecipitation. After the test, the seroconversion is monitored by an ELISA using immobilized envelope peptides and a recombinant FTV capsid protein.
(§2) The ELISA with the immobilized envelope peptides corresponding to the immunogenic domains SU2 and TM2 and with the immobilized recombinant p25 protein (FIV capsid protein) is carried out as described in Avraméas A. et al. (Res. Virol., 1993, 144, 209-218).
(§3) Microplates (Immunolon II, Dynatech) are coated with 0.5 μg/well for the peptides and with 0.1 μg/well for the p25 protein.
(§4) The tests are carried out in duplicate and the results are expressed as average values.
After the test, the seroconversion against the envelope peptides and the p25 protein is evaluated at serum dilutions of 1/25 and 1/100, respectively.
The absorbance values (at 405 nm) are corrected by subtraction of the absorbance values obtained by binding with an immobilized control peptide.
The tests are normalized with reference to the binding of a mixture of serum from cats infected with FIV with a peptide representing the immunodominant domain of the FIV transmembrane glycoprotein (TM2) (Avraméas A. et al., Res. Virol., 1993, 144, 209-218).

Assay [2] deals with immobilized peptide (SU2, SU5, TM2 or TM3-19). In words: ELISA anti-peptide titre during the immunization of cats. It counts as in vivo. To be noted: individual cats immunized with KLH-coupled peptide; absorbance at 405 nm greater than 0.1. On the procedure:
Groups of four cats 4½ months old are immunized subcutaneously with 120 μg of FIV peptide (approximately 250 μg of peptide coupled to KLH (keyhole limpet haemocyanin)), emulsified in complete Freund's adjuvant.
Four repeat immunizations are administered subcutaneously in an incomplete Freund's adjuvant, generally at intervals of 2-3 weeks, although the interval between the last 2 […] was 7 weeks.
as §1, §2, §3, §4
The anti-peptide titres before the test are expressed as the logarithm of the inverse of the last dilution of serum which gives an absorbance (at 405 nm) of greater than 0.1.
In general terms: In an ELISA, binding on a coated surface is turned into a signal by an enzyme label.

Another assay deals with CD4+ T lymphocytes. In words: Counting of circulating CD4+ T lymphocytes by flow cytometry. It counts as in vivo, cats. The conditions noted are these: acute infection with FIV Wo, FIG. 2. On the procedure: Counting of the CD4^+ T lymphocytes is carried out at regular intervals before the test, on the day of the test and at regular intervals during the acute infection.
The CD4^+ T lymphocytes are counted by flow cytometry, using monoclonal antibodies (Clinisciences).
To evaluate the effect of the immunization on the pathology associated with a primary infection, circulating CD4^+ lymphocytes are counted before and after the test with the FIV Wo strain.
(In general: Flow cytometry measures light scatter and fluorescence of single cells or particles in a stream.)

On to “KKGLQQLQEWEDWVGWIGN [TM3-19, 19-amino-acid fragment of the TM3 domain of the FIV Wo Env transmembrane glycoprotein (759-777)]”, for which the “effect of sera on infection with FIV Wo (reduction of infectivity)” value with FIV Wo is on record as “do not modify the infection”. Further, the “neutralizing antibodies in sera of immunized cats” value in the assay with FIV Petaluma strain was “do not neutralize”. For the same substance, in assay [1], the “Binding of the sera to p25, 3 weeks after the virulence test” value is 0 optical density (2×) and 0.2 optical density and 0.1 optical density; the “Binding of the sera to p25, 4 weeks after the virulence test” value is 0.1 optical density and 2.3 optical density and 0 optical density (2×); the “Binding of the sera to p25, 5 weeks after the virulence test” value was 0.6 optical density and 2.3 optical density and 0 optical density and 0.1 optical density. In addition, in assay [1] (at 5 weeks after the test), the “response to the p25 protein” value is “one cat (348) immunized with the TM3-19 peptide does not respond and among the other 3 cats, 2 animals (346, 349) develop only weak responses”. Moreover, in assay [2], the “Anti-peptide titre, 1st injection” value is 4.71 logarithm of the inverse of the last dilution of serum and 5.01 logarithm of the inverse of the last dilution of serum and 5.31 logarithm of the inverse of the last dilution of serum; the “Anti-peptide titre, 2nd injection” value was 4.71 logarithm of the inverse of the last dilution of serum and 5.31 logarithm of the inverse of the last dilution of serum and 5.01 logarithm of the inverse of the last dilution of serum and 3.20 logarithm of the inverse of the last dilution of serum; the “Anti-peptide titre, Day of the test” value is 4.40 logarithm of the inverse of the last dilution of serum (3×) and 4.71 logarithm of the inverse of the last dilution of serum. Further, in the assay on CD4+ T lymphocytes, the “number of CD4+ lymphocytes after the infection” value was “does not show a large decrease”.

Regarding “SU2: peptide of the SU2 domain of the FIV surface envelope glycoprotein, SEQ ID NO: 2, used as immunogen (RAISSWKQRNRWEWRPD)”, the “effect of sera on infection with FIV Wo (reduction of infectivity)” value with FIV Wo was “do not modify the infection”. Moreover, the “neutralizing antibodies in sera of immunized cats” value in the assay on FIV Petaluma strain is recorded as “Only one cat (327) immunized with the SU2 peptide develops neutralizing antibodies”. In the assay on FIV Petaluma strain (cat 327, CrFK cells), the “final dilution of serum which reduces the infection by at least 50%” value was 1/160. In assay [1], the “Binding of the sera to p25, 3 weeks after the virulence test” value is recorded as 0 optical density; the “Binding of the sera to p25, 4 weeks after the virulence test” value was 0.2 optical density (2×) and 0.4 optical density and 0 optical density; the “Binding of the sera to p25, 5 weeks after the virulence test” value was 1.1 optical density and 1.3 optical density and 1.9 optical density and 0.2 optical density. In addition, in assay [2], the “Anti-peptide titre, 1st injection” value is 4.40 logarithm of the inverse of the last dilution of serum and 5.31 logarithm of the inverse of the last dilution of serum and 4.71 logarithm of the inverse of the last dilution of serum and 5.01 logarithm of the inverse of the last dilution of serum; the “Anti-peptide titre, 2nd injection” value was 4.71 logarithm of the inverse of the last dilution of serum and 5.01 logarithm of the inverse of the last dilution of serum (2×) and 5.31 logarithm of the inverse of the last dilution of serum; the “Anti-peptide titre, Day of the test” value is 5.31 logarithm of the inverse of the last dilution of serum and 4.71 logarithm of the inverse of the last dilution of serum and 5.61 logarithm of the inverse of the last dilution of serum and 5.01 logarithm of the inverse of the last dilution of serum. Also, the “number of CD4+ lymphocytes after the infection” value in the assay on CD4+ T lymphocytes is on record as “gradual reduction”.
